{"source": "patent US12540118B2", "about": "“Dendrene amide compound, bactericide and use thereof” (Jiangsu Flag Chemical Industry Co., Ltd., priority 2020, dated 2026)", "key": {"succinate dehydrogenase": {"molecular_target": "T1, succinate dehydrogenase (Sus scrofa, UniProt A5GZW8+D0VWV4+Q007T0)", "T1 construct": "isolated from porcine hearts; from tissue; host or cells: porcine heart", "T1 sequence (Q0QF01 43-664 partner)": "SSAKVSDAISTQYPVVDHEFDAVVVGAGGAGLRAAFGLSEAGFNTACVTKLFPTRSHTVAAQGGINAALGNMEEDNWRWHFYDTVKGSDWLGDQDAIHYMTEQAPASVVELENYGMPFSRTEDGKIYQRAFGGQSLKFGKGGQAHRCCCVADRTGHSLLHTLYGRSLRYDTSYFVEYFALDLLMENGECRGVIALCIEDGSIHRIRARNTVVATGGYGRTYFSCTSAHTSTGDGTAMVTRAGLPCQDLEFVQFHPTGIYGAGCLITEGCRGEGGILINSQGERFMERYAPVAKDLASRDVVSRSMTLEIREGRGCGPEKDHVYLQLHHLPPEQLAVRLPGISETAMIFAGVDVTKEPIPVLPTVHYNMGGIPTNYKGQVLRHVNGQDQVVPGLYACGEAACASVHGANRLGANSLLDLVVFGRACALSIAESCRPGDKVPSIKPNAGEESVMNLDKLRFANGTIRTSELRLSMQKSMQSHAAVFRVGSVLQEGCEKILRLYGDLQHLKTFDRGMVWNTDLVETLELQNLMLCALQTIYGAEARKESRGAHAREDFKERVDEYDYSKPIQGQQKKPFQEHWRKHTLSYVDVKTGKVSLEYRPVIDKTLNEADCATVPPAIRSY", "T1 sequence (Q007T0 29-280)": "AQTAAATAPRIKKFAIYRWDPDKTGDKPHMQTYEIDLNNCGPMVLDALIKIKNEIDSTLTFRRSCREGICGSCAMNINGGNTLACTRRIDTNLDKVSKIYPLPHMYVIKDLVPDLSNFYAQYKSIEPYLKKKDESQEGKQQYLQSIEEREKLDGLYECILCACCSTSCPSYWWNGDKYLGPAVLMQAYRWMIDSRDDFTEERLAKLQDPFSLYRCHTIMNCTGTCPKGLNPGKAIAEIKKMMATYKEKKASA", "T1 sequence (D0VWV4 30-169)": "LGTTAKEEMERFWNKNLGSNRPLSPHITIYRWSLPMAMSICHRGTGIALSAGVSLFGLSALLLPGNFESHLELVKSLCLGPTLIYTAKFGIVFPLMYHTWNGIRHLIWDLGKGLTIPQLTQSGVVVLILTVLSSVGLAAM", "T1 sequence (A5GZW8 57-159 limits assumed)": "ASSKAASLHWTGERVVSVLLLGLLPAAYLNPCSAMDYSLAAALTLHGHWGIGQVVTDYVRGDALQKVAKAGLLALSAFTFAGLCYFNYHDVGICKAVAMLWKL", "assay": "Enzyme activity assay, succinate dehydrogenase (DCIP reduction)", "type": "biochemical, porcine", "conditions": "read-out: Inhibitors (10 μM, SQR)", "procedure": "The inhibitory activities of control agents and target compounds on succinate dehydrogenase are determined.\nThe enzyme used in this test example is succinate dehydrogenase, which is isolated from porcine hearts.\nThe test method comprises the following steps: The total volume of the system is 1.8 ml, and the system contained 100 mM Na2HPO4—NaH2PO4 buffer (pH=7.4), 0.3 mM EDTA, 20 mM sodium succinate, 53 μM DCIP (2,6-dichloroindophenol sodium), and 2 nM succinate dehydrogenase. Thermostatic waterbath at 23° C. and magnetic stirring at 600 rpm. The decrease in the light absorption of the substrate DCIP is monitored at a wavelength of 600 nm and experimental points in a linear range are collected. Control substrate consumption not more than 5% of the experimental points. The molar extinction coefficient of DCIP is 21 mM^−1 cm^−1. And calculating the reduction yield of the DCIP in the reaction time, fitting a linear slope, and deducting the baseline slope to obtain the initial reaction speed."}, "Erysiphe graminis": {"tested_on": "Erysiphe graminis", "assay": "Erysiphe graminis potting method", "type": "in vivo", "conditions": "Blumeria graminis; 100 mg/L; read-out: Erysiphe graminis control rating", "procedure": "The fungicidal activity of the control agents and target compounds are determined. The test and investigation method refers to SOP-SC-1116 Erysiphe graminis potting method in disinfectant rolls written by KANGZHUO and GUBAOGEN in “Standard operation specification for testing biological activity of pesticides”."}, "Sphaerotheca fuliginea": {"tested_on": "Sphaerotheca fuliginea", "assay": "Sphaerotheca fuliginea potting method", "type": "in vivo", "conditions": "Podosphaera fuliginea; 100 mg/L; read-out: Sphaerotheca fuliginea control rating", "procedure": "The fungicidal activity of the control agents and target compounds are determined. The test and investigation method refers to SOP-SC-1101 sphaerotheca fuliginea potting method in disinfectant rolls written by KANGZHUO and GUBAOGEN in “Standard operation specification for testing biological activity of pesticides”."}}, "data": [{"smiles": "Cn1nc(C(F)F)c(C(=O)N(CC(=C(Cl)Cl)c2cc(Br)ccc2Br)C2CC2)c1F", "note": "[Compound 135]", "values": [{"measurement": "inhibition at 10 µM", "setting": "succinate dehydrogenase", "value": "> 90", "unit": "%"}, {"measurement": "pest or weed control at 100 µg/mL", "setting": "Erysiphe graminis", "value": "80 to 100", "unit": "%"}, {"measurement": "pest or weed control at 100 µg/mL", "setting": "Sphaerotheca fuliginea", "value": "80 to 100", "unit": "%"}]}, {"smiles": "C=C(c1ccc(Cl)cc1)C(C)N(C(=O)c1c(C(F)F)nn(C)c1F)C1CC1", "note": "(stereo not drawn) [Compound 59]", "values": [{"measurement": "inhibition at 10 µM", "setting": "succinate dehydrogenase", "value": "> 90", "unit": "%"}, {"measurement": "pest or weed control at 100 µg/mL", "setting": "Erysiphe graminis", "value": "80 to 100", "unit": "%"}, {"measurement": "pest or weed control at 100 µg/mL", "setting": "Sphaerotheca fuliginea", "value": "80 to 100", "unit": "%"}]}, {"smiles": "C=C(c1c(C)cc(C)cc1C)C(C)N(C(=O)c1c(C(F)F)nn(C)c1F)C1CC1", "note": "(stereo not drawn) [Compound 91]", "values": [{"measurement": "inhibition at 10 µM", "setting": "succinate dehydrogenase", "value": "> 90", "unit": "%"}, {"measurement": "pest or weed control at 100 µg/mL", "setting": "Erysiphe graminis", "value": "80 to 100", "unit": "%"}, {"measurement": "pest or weed control at 100 µg/mL", "setting": "Sphaerotheca fuliginea", "value": "80 to 100", "unit": "%"}]}, {"smiles": "Cn1nc(C(F)F)c(C(=O)N(CC(=C(Cl)Cl)c2ccc(Cl)cc2F)C2CC2)c1F", "note": "[Compound 153]", "values": [{"measurement": "inhibition at 10 µM", "setting": "succinate dehydrogenase", "value": "> 90", "unit": "%"}, {"measurement": "pest or weed control at 100 µg/mL", "setting": "Erysiphe graminis", "value": "80 to 100", "unit": "%"}, {"measurement": "pest or weed control at 100 µg/mL", "setting": "Sphaerotheca fuliginea", "value": "80 to 100", "unit": "%"}]}, {"smiles": "C=C(CN(C(=O)c1c(C(F)F)nn(C)c1F)C1CC1)c1ccc(Br)cc1", "note": "[Compound 27]", "values": [{"measurement": "inhibition at 10 µM", "setting": "succinate dehydrogenase", "value": "> 90", "unit": "%"}, {"measurement": "pest or weed control at 100 µg/mL", "setting": "Erysiphe graminis", "value": "80 to 100", "unit": "%"}, {"measurement": "pest or weed control at 100 µg/mL", "setting": "Sphaerotheca fuliginea", "value": "80 to 100", "unit": "%"}]}, {"smiles": "C=C(c1ccc(S(=O)(=O)CC)cc1)C(C)N(C(=O)c1c(C(F)F)nn(C)c1F)C1CC1", "note": "(stereo not drawn) [Compound 107]", "values": [{"measurement": "inhibition at 10 µM", "setting": "succinate dehydrogenase", "value": "> 90", "unit": "%"}, {"measurement": "pest or weed control at 100 µg/mL", "setting": "Erysiphe graminis", "value": "80 to 100", "unit": "%"}, {"measurement": "pest or weed control at 100 µg/mL", "setting": "Sphaerotheca fuliginea", "value": "80 to 100", "unit": "%"}]}, {"smiles": "Cn1nc(C(F)F)c(C(=O)N(CC(=C(Cl)Cl)c2ccccc2Cl)C2CC2)c1F", "note": "[Compound 116]", "values": [{"measurement": "inhibition at 10 µM", "setting": "succinate dehydrogenase", "value": "> 90", "unit": "%"}, {"measurement": "pest or weed control at 100 µg/mL", "setting": "Erysiphe graminis", "value": "80 to 100", "unit": "%"}, {"measurement": "pest or weed control at 100 µg/mL", "setting": "Sphaerotheca fuliginea", "value": "80 to 100", "unit": "%"}]}, {"smiles": "C=C(CN(C(=O)c1c(C(F)F)nn(C)c1F)C1CC1)c1ccc(Cl)cc1F", "note": "[Compound 42]", "values": [{"measurement": "inhibition at 10 µM", "setting": "succinate dehydrogenase", "value": "> 90", "unit": "%"}, {"measurement": "pest or weed control at 100 µg/mL", "setting": "Erysiphe graminis", "value": "80 to 100", "unit": "%"}, {"measurement": "pest or weed control at 100 µg/mL", "setting": "Sphaerotheca fuliginea", "value": "80 to 100", "unit": "%"}]}, {"smiles": "C=C(c1cc(F)ccc1F)C(C)N(C(=O)c1c(C(F)F)nn(C)c1F)C1CC1", "note": "(stereo not drawn) [Compound 77]", "values": [{"measurement": "inhibition at 10 µM", "setting": "succinate dehydrogenase", "value": "> 90", "unit": "%"}, {"measurement": "pest or weed control at 100 µg/mL", "setting": "Erysiphe graminis", "value": "80 to 100", "unit": "%"}, {"measurement": "pest or weed control at 100 µg/mL", "setting": "Sphaerotheca fuliginea", "value": "80 to 100", "unit": "%"}]}, {"smiles": "C=C(CN(C(=O)c1c(C(F)F)nn(C)c1F)C1CC1)c1ccc(C(C)C)cc1C", "note": "[Compound 41]", "values": [{"measurement": "inhibition at 10 µM", "setting": "succinate dehydrogenase", "value": "> 90", "unit": "%"}, {"measurement": "pest or weed control at 100 µg/mL", "setting": "Erysiphe graminis", "value": "80 to 100", "unit": "%"}, {"measurement": "pest or weed control at 100 µg/mL", "setting": "Sphaerotheca fuliginea", "value": "80 to 100", "unit": "%"}]}, {"smiles": "C=C(CN(C(=O)c1c(C(F)F)nn(C)c1F)C1CC1)c1cc(Cl)cc(Cl)c1", "note": "[Compound 2]", "values": [{"measurement": "inhibition at 10 µM", "setting": "succinate dehydrogenase", "value": "> 90", "unit": "%"}, {"measurement": "pest or weed control at 100 µg/mL", "setting": "Erysiphe graminis", "value": "80 to 100", "unit": "%"}, {"measurement": "pest or weed control at 100 µg/mL", "setting": "Sphaerotheca fuliginea", "value": "80 to 100", "unit": "%"}]}, {"smiles": "CC(C(=C(Cl)Cl)c1ccc(Cl)cc1F)N(C(=O)c1c(C(F)F)nn(C)c1F)C1CC1", "note": "(stereo not drawn) [Compound 206]", "values": [{"measurement": "inhibition at 10 µM", "setting": "succinate dehydrogenase", "value": "> 90", "unit": "%"}, {"measurement": "pest or weed control at 100 µg/mL", "setting": "Erysiphe graminis", "value": "80 to 100", "unit": "%"}, {"measurement": "pest or weed control at 100 µg/mL", "setting": "Sphaerotheca fuliginea", "value": "80 to 100", "unit": "%"}]}, {"smiles": "C=C(CN(C(=O)c1c(C(F)F)nn(C)c1F)C1CC1)c1ccc(F)cc1Cl", "note": "[Compound 43]", "values": [{"measurement": "inhibition at 10 µM", "setting": "succinate dehydrogenase", "value": "> 90", "unit": "%"}, {"measurement": "pest or weed control at 100 µg/mL", "setting": "Erysiphe graminis", "value": "80 to 100", "unit": "%"}, {"measurement": "pest or weed control at 100 µg/mL", "setting": "Sphaerotheca fuliginea", "value": "80 to 100", "unit": "%"}]}, {"smiles": "CC(C(=C(Cl)Cl)c1ccc(Br)cc1)N(C(=O)c1c(C(F)F)nn(C)c1F)C1CC1", "note": "(stereo not drawn) [Compound 184]", "values": [{"measurement": "inhibition at 10 µM", "setting": "succinate dehydrogenase", "value": "> 90", "unit": "%"}, {"measurement": "pest or weed control at 100 µg/mL", "setting": "Erysiphe graminis", "value": "80 to 100", "unit": "%"}, {"measurement": "pest or weed control at 100 µg/mL", "setting": "Sphaerotheca fuliginea", "value": "80 to 100", "unit": "%"}]}, {"smiles": "C=C(CN(C(=O)c1c(C(F)F)nn(C)c1F)C1CC1)c1ccc(F)cc1F", "note": "[Compound 23]", "values": [{"measurement": "inhibition at 10 µM", "setting": "succinate dehydrogenase", "value": "> 90", "unit": "%"}, {"measurement": "pest or weed control at 100 µg/mL", "setting": "Erysiphe graminis", "value": "80 to 100", "unit": "%"}, {"measurement": "pest or weed control at 100 µg/mL", "setting": "Sphaerotheca fuliginea", "value": "80 to 100", "unit": "%"}]}, {"smiles": "C=C(CN(C(=O)c1c(C(F)F)nn(C)c1F)C1CC1)c1cccc(Cl)c1Cl", "note": "[Compound 8]", "values": [{"measurement": "inhibition at 10 µM", "setting": "succinate dehydrogenase", "value": "> 90", "unit": "%"}, {"measurement": "pest or weed control at 100 µg/mL", "setting": "Erysiphe graminis", "value": "80 to 100", "unit": "%"}, {"measurement": "pest or weed control at 100 µg/mL", "setting": "Sphaerotheca fuliginea", "value": "80 to 100", "unit": "%"}]}, {"smiles": "C=C(c1ccc(C)cc1)C(C)N(C(=O)c1c(C(F)F)nn(C)c1F)C1CC1", "note": "(stereo not drawn) [Compound 60]", "values": [{"measurement": "inhibition at 10 µM", "setting": "succinate dehydrogenase", "value": "> 90", "unit": "%"}, {"measurement": "pest or weed control at 100 µg/mL", "setting": "Erysiphe graminis", "value": "80 to 100", "unit": "%"}, {"measurement": "pest or weed control at 100 µg/mL", "setting": "Sphaerotheca fuliginea", "value": "80 to 100", "unit": "%"}]}, {"smiles": "CC(C(=C(Cl)Cl)c1ccc(Cl)cc1Cl)N(C(=O)c1c(C(F)F)nn(C)c1F)C1CC1", "note": "(stereo not drawn) [Compound 170]", "values": [{"measurement": "inhibition at 10 µM", "setting": "succinate dehydrogenase", "value": "> 90", "unit": "%"}, {"measurement": "pest or weed control at 100 µg/mL", "setting": "Erysiphe graminis", "value": "80 to 100", "unit": "%"}, {"measurement": "pest or weed control at 100 µg/mL", "setting": "Sphaerotheca fuliginea", "value": "80 to 100", "unit": "%"}]}, {"smiles": "Cc1ccc(C)c(C(=C(Cl)Cl)C(C)N(C(=O)c2c(C(F)F)nn(C)c2F)C2CC2)c1", "note": "(stereo not drawn) [Compound 194]", "values": [{"measurement": "inhibition at 10 µM", "setting": "succinate dehydrogenase", "value": "> 90", "unit": "%"}, {"measurement": "pest or weed control at 100 µg/mL", "setting": "Erysiphe graminis", "value": "80 to 100", "unit": "%"}, {"measurement": "pest or weed control at 100 µg/mL", "setting": "Sphaerotheca fuliginea", "value": "80 to 100", "unit": "%"}]}, {"smiles": "C=C(CN(C(=O)c1c(C(F)F)nn(C)c1F)C1CC1)c1ccc(S(C)(=O)=O)cc1", "note": "[Compound 15]", "values": [{"measurement": "inhibition at 10 µM", "setting": "succinate dehydrogenase", "value": "> 90", "unit": "%"}, {"measurement": "pest or weed control at 100 µg/mL", "setting": "Erysiphe graminis", "value": "80 to 100", "unit": "%"}, {"measurement": "pest or weed control at 100 µg/mL", "setting": "Sphaerotheca fuliginea", "value": "70 to 80", "unit": "%"}]}, {"smiles": "C=C(CN(C(=O)c1c(C(F)F)nn(C)c1F)C1CC1)c1cc(Cl)ccc1Cl", "note": "[Compound 14]", "values": [{"measurement": "inhibition at 10 µM", "setting": "succinate dehydrogenase", "value": "> 90", "unit": "%"}, {"measurement": "pest or weed control at 100 µg/mL", "setting": "Erysiphe graminis", "value": "80 to 100", "unit": "%"}, {"measurement": "pest or weed control at 100 µg/mL", "setting": "Sphaerotheca fuliginea", "value": "80 to 100", "unit": "%"}]}]}
